Experimental data reported in patent publication US20120010253A1, “Fungicidal compositions comprising Fluopyram and Metrafenone” (BASF SE, priority 2009, published 2012).

Assays:
Pyrenophora teres = assay: Activity against Pyrenophora teres (net blotch on barley) in the microtiter plate test; assay type: cell-based; conditions: MTP, 405 nm, 7 days after inoculation
Method: The active substances were formulated separately as a stock solution in dimethyl sulfoxide (DMSO) at a concentration of 10 000 ppm. Use Example 2—Activity Against Pyrenophora teres (Net Blotch on Barley) in the Microtiter Plate Test The stock solutions were mixed according to the ratio, pipetted onto a micro titer plate (MTP) and diluted with water to the stated concentrations. A spore suspension of Pyrenophora teres in an aqueous biomalt solution was then added. The plates were placed in a water vapor-saturated chamber at a temperature of 18° C. Using an absorption photometer, the MTPs were measured at 405 nm 7 days after the inoculation. The measured parameters were compared to the growth of the active compound-free control variant (100%) and the fungus-free and active compound-free blank value to determine the relative growth in % of the pathogens in the respective active compounds. These percentages were converted into efficacies. The expected efficacies of active compound mixtures were determined using Colby's formula [R. S. Colby, “Calculating synergistic and antagonistic responses of herbicide combinations”, Weeds 15, 20-22 (1967)] and compared with the observed efficacies.

Botrytis cinerea = assay: Activity against the grey mold Botrytis cinerea in the microtiter plate test; assay type: cell-based; conditions: MTP, 405 nm, 7 days after inoculation
Method: The active substances were formulated separately as a stock solution in dimethyl sulfoxide (DMSO) at a concentration of 10 000 ppm. Use Example 1—Activity Against the Grey Mold Botrytis cinerea in the Microtiter Plate Test The stock solutions were mixed according to the ratio, pipetted onto a micro titer plate (MTP) and diluted with water to the stated concentrations. A spore suspension of Botrci cinerea in an aqueous biomalt solution was then added. The plates were placed in a water vapor-saturated chamber at a temperature of 18° C. Using an absorption photometer, the MTPs were measured at 405 nm 7 days after the inoculation. The measured parameters were compared to the growth of the active compound-free control variant (100%) and the fungus-free and active compound-free blank value to determine the relative growth in % of the pathogens in the respective active compounds. These percentages were converted into efficacies. The expected efficacies of active compound mixtures were determined using Colby's formula [R. S. Colby, “Calculating synergistic and antagonistic responses of herbicide combinations”, Weeds 15, 20-22 (1967)] and compared with the observed efficacies.

SMILES	Observed efficacy (%) (Pyrenophora teres; 0.063 ppm)	Observed efficacy (%) (Pyrenophora teres; 0.25 ppm)	Observed efficacy (%) (Botrytis cinerea; 0.25 ppm)	Observed efficacy (%) (Pyrenophora teres; 1 ppm)	Observed efficacy (%) (Botrytis cinerea; 16 ppm)
O=C(NCCc1ncc(C(F)(F)F)cc1Cl)c1ccccc1C(F)(F)F [Fluopyram]	16	60	18		
COc1cc(C)c(C(=O)c2c(OC)ccc(Br)c2C)c(OC)c1OC [Metrafenon, Metrafenone]	3			18	10
